Laboratory results reported in patent publication US20220324851A1, “AMINE-SUBSTITUTED HETEROCYCLIC COMPOUNDS AS EHMT2 INHIBITORS, SALTS THEREOF, AND METHODS OF SYNTHESIS THEREOF” (Epizyme, Inc., priority 2017, published 2022).
Counter-ions that a name gives are not always drawn.

Experiments:
Assay type in all cases: physicochemical
[1] = DVS water uptake / hygroscopicity; settings: for hygroscopicity (in words): conclusion from DVS where run
[2] = XRPD before and after DVS (form change); settings: state of sample post DVS
[3] = stressing at 40° C./75% RH (form change)
[4] = appearance under ambient condition; settings: wet solid under ambient condition; not tested by TGA/DSC

hygroscopicity (in words) [1] | water uptake (DVS) ([1]; from 0% to 80% RH) | form change after DVS [2] | water uptake (DVS) ([1]; at 25° C./80% RH) [%] | water uptake (DVS) ([1]; from 50% RH to 80% RH at 25° C.) | form change after stressing [3] | hygroscopicity (in words) [4] | SMILES
hygroscopic | around 12.9% | No form change |  |  |  |  | CNc1cc(C)nc(Nc2ccc(OC)c(CNCCN3CCCC3)c2)n1 [Compound 3 Freebase Type A]
highly hygroscopic |  | No significant form change | 20.5 |  |  |  | CNc1cc(C)nc(Nc2ccc(OC)c(CNCCN3CCCC3)c2)n1 [Compound 3 Sulfate Sate Type A]
hygroscopic |  | change of XRPD pattern was observed |  | around 4% |  |  | CNc1cc(C)nc(Nc2ccc(OC)c(OC[C@H](O)CN3CCCC3)c2)n1 [Compound 4R Hydrochloride Salt Type A]
 | around 45.3% | deliquescence |  |  |  |  | CNc1cc(C)nc(Nc2ccc(OC)c(CNCCN3CCCC3)c2)n1 [Compound 3 Glycolate Salt Type B]
hygroscopic |  | change of XRPD pattern was observed | 15.3 |  |  |  | CNc1cc(C)nc(Nc2ccc(OC)c(CNCCN3CCCC3)c2)n1 [Compound 3 Hydrochloride Salt Type B]
hygroscopic |  | No change in XRPD pattern | ~8 |  |  |  | CNc1cc(C)nc(Nc2cnc(OC)c(OC[C@@H]3CCN(C)C3)c2)n1 [Compound 1R Hydrochloride Salt Type A]
hygroscopic | around 9.6% | No form change |  |  |  |  | CNc1cc(C)nc(Nc2ccc(OC)c(OC[C@H](O)CN3CCCC3)c2)n1 [Compound 4R Succinate Salt Type A]
hygroscopic | around 8.7% | No form change |  |  |  |  | CNc1cc(C)nc(Nc2ccc(OC)c(OC[C@H](O)CN3CCCC3)c2)n1 [Compound 4R Freebase Type C]
 |  |  |  |  | No form change |  | CNc1cc(C)nc(Nc2ccc(OC)c(OC[C@H](O)CN3CCC3)c2)n1 [Compound 5R Gentisate Salt Type E]
hygroscopic |  | No significant form change | 7.6 |  |  |  | CNc1cc(C)nc(Nc2ccc(OC)c(OC[C@H](O)CN3CCC3)c2)n1 [Compound 5R Fumarate Salt Type A]
 | around 1.9% |  |  |  |  |  | CNCc1cnn(-c2c(OC)ccc(Nc3nc(C)cc(NC)n3)c2F)c1 [Compound 7 Fumarate Salt Type C]
very hygroscopic | around 17.4% | No form change |  |  |  |  | CNc1cc(C)nc(Nc2ccc(OC)c(OC[C@H](O)CN3CCCC3)c2)n1 [Compound 4R Hydrochloride Salt Type B]
hygroscopic |  | No significant form change | 2.6 |  |  |  | CNc1cc(C)nc(Nc2ccc(OC)c(OC[C@H](O)CN3CCC3)c2)n1 [Compound 5R Hippurate Salt Type A]
 |  |  |  |  |  | high hygroscopicity | CNCc1cnn(-c2cc(Nc3nc(C)cc(NC)n3)ccc2OC)c1 [Compound 6 Glycolate Salt Type A]
low hygroscopicity |  |  |  |  |  |  | CNCc1cnn(-c2c(OC)ccc(Nc3nc(C)cc(NC)n3)c2F)c1 [Compound 7 Fumarate Salt Type A]
 |  | new hydrate form |  |  |  |  | CNc1cc(C)nc(Nc2ccc(OC)c(CNCCN3CCCC3)c2)n1 [Compound 3 Hydrochloride Salt Type A]
hygroscopic | around 4.4% | No form change |  |  |  |  | CNCc1cnn(-c2cc(Nc3nc(C)cc(NC)n3)ccc2OC)c1 [Compound 6 freebase Type A]
slightly hygroscopic | around 1.0% | No form change |  |  |  |  | CNc1cc(C2CCOCC2)c2cc(OC)c(OCCCN3CCCC3)cc2n1 [Compound 2 Freebase Type A]
very hygroscopic | around 19.4% | Form change was observed |  |  |  |  | CNCc1cnn(-c2cc(Nc3nc(C)cc(NC)n3)ccc2OC)c1 [Compound 6 Hydrochloride Salt Type A]

SMILES | hygroscopicity (in words) [1] | water uptake (DVS) ([1]; from 0% to 80% RH) | form change after DVS [2] | water uptake (DVS) ([1]; at 25° C./80% RH) [%] | water uptake (DVS) ([1]; from 50% RH to 80% RH at 25° C.) | form change after stressing [3] | hygroscopicity (in words) [4]
CNCc1cnn(-c2cc(Nc3nc(C)cc(NC)n3)ccc2OC)c1 [Compound 6 Adipate Salt Type B] | hygroscopic | around 8.8% | form change from Compound 6 Adipate Salt Type B to Compound 6 Adipate Salt Type A |  |  |  | 
